Measured values taken from PubChem BioAssay (NCI).
Values joined by “and” are separate entries in the source; they are usually repeats but may differ in a detail not shown here. Equal entries are not always repeated.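 Each compound was tested at five concentrations against cells in 96-well plates for 48 hours. GI50: concentration for 50% inhibition of growth. Definition used: TGI = concentration required for complete inhibition of growth.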

Key:
Test in all cases: DTP human tumour cell line panel, 48 h
[1] = tested on: SK-OV-3 ovarian
[2] = tested on: COLO 205 colon
[3] = tested on: OVCAR-5 ovarian
[4] = tested on: RXF 393 renal
[5] = tested on: HOP-92 NSCLC
[6] = tested on: OVCAR-8 ovarian
[7] = tested on: TK-10 renal
[8] = tested on: EKVX NSCLC
[9] = tested on: HS 578T breast
[10] = tested on: PC-3 prostate
[11] = tested on: LXFL 529 NSCLC
[12] = tested on: DMS 273 small cell lung
[13] = tested on: M19-MEL melanoma
[14] = tested on: KM20L2 colon
[15] = tested on: DLD-1 colon

Structure (SMILES) | TGI [1] | TGI [2] | TGI [3] [µM] | TGI [4] [µM] | TGI [5] | TGI [6] [µM] | TGI [7] | TGI [8] [µM] | TGI [9] [µM] | TGI [10] | TGI [11] [µM] | TGI [12] [µM] | TGI [13] [µM] | TGI [14] [µM] | TGI [15] [µM] | GI50 [7] [µM] | GI50 [1] | GI50 [5] [µM] | GI50 [9]
N#Cc1ccccc1OCCOc1ccccc1C#N | > 100 µM | > 100 µM | > 100 | > 100 | > 100 µM | > 100 | > 100 µM | > 100 | > 100 | > 100 µM |  |  |  |  |  |  |  |  | 
CCN(CC)CCNc1ccc([N+](=O)[O-])c2nc3ccc(OC)cc3c(NCCN(CC)CC)c12 | > 10 µM | 1.59 µM | 4.79 | 2.59 | 5.42 µM | > 4.16 | > 8.78 µM | 5.02 | 3.91 | 2.1 µM |  |  |  |  |  |  |  |  | 
C1CSCCSCCCS[C@@H]2CCCCC2SC1 (stereo partly drawn) | > 100 µM | > 100 µM | > 100 | > 100 | > 100 µM | > 100 | > 100 µM | > 100 |  |  | > 100 | > 100 | > 100 | > 100 | > 100 |  |  |  | 
S=C1Cc2c(-c3ccccc3)cc(-c3cccc(Cl)c3)nc2-c2ccccc2N1 | 17.4 µM | > 100 µM | > 72.7 | 12.8 | 5.12 µM | 4.39 | 1.9 µM | 24.4 | 6.12 | > 96.1 µM |  |  |  |  |  | 0.436 |  |  | 
[B]C(=O)NC(CC(C)C)C(=O)NCC(=O)NC1c2ccsc2C(=O)C1O (stereo not drawn) (tested in a mixture with another compound) | > 100 µM | > 100 µM | > 100 | > 100 | > 100 µM | > 100 | > 100 µM | > 100 | > 100 | > 100 µM |  |  |  |  |  |  |  |  | 
CN(NC1=NCCO1)c1ccc2ccccc2c1 | > 100 µM | > 100 µM | > 100 | > 100 | 57.3 µM | > 100 | > 100 µM | > 100 | > 100 | > 100 µM |  |  |  |  |  |  |  |  | 
Cc1cc(O)c(/C=N/C(N)=S)c(=O)o1 | > 100 µM | > 100 µM | > 100 | > 100 | > 100 µM | > 100 | 90.5 µM | > 100 | > 100 | > 100 µM |  |  |  |  |  |  |  |  | 
COC(=O)/C=C(\C(=O)OC)c1cc(C)c2cc(C(C)C)ccc(C)c1-2 | > 100 µM | > 100 µM | > 100 | > 100 | 77.9 µM | > 100 | > 100 µM | > 100 | > 100 | > 100 µM |  |  |  |  |  |  |  |  | 
O=C(NCCN(CCNC(=O)c1cccc(O)c1O)CCNC(=O)c1cccc(O)c1O)c1cccc(O)c1O | > 100 µM | > 100 µM | > 100 | 94.6 | > 86.9 µM | 49.4 | > 100 µM | > 100 | > 100 | > 100 µM |  |  |  |  |  |  |  |  | 
COc1cc([C@@H]2c3cc4c(cc3[C@@H](Nc3ccc(NC(=O)c5cc([N+](=O)[O-])cn5C)cc3)[C@H]3COC(=O)[C@H]23)OCO4)cc(OC)c1O | > 100 µM and 19.1 µM | 2.61 µM and 1.3 µM | 10.4 | > 100 | 39.9 µM and 19.7 µM | 1.04 | 6.15 µM and 2.95 µM | > 100 | > 100 | > 100 µM and 12.5 µM |  |  |  |  |  |  | 0.104 µM and 0.262 µM | 0.0549 | 2.11 µM and 0.756 µM
COC(=O)/C=C/c1ccc(OP(=O)(O)O)c(OC)c1 | > 100 µM | > 100 µM | > 100 | > 100 | > 100 µM | > 100 | > 100 µM | > 100 | > 100 | > 100 µM |  |  |  |  |  |  |  |  | 
Cc1nc2c(sc3nc4c(cc32)CCC4)c(=O)o1 | > 100 µM | > 100 µM | > 100 | > 100 | > 96.4 µM | > 93.7 | > 100 µM | > 100 | > 100 | > 100 µM |  |  |  |  |  |  |  |  | 
COc1ccc(-c2c(C3=NCCCN3)nnn2-c2ccccc2)cc1 | > 100 µM | > 100 µM | > 100 | > 100 | > 100 µM | > 100 | > 100 µM | > 100 |  |  | > 100 | > 100 | > 100 | > 100 | > 100 |  |  |  | 
O=C1CC(c2ccc(Cl)cc2)=Nc2ccccc2N1 | 97.3 µM | > 100 µM | > 100 | 61.4 | 71.1 µM | 76.6 | > 100 µM | > 100 |  |  | > 100 | > 100 | > 100 | > 100 | > 100 |  |  |  | 
C[C@@H](CC(=O)OCc1ccccc1)OC1OC(COC(=O)C(C)(C)C)C(OC(=O)C(C)(C)C)C(OC(=O)C(C)(C)C)C1OC(=O)C(C)(C)C (stereo partly drawn) | > 100 µM | > 100 µM | > 100 | > 100 | > 100 µM | > 100 | > 100 µM | > 100 | > 100 | > 100 µM |  |  |  |  |  |  |  |  | 
